According to ChEMBL document CHEMBL3769371, “1-[(2E)-3-Phenylprop-2-enoyl]-1H-benzimidazoles as anticancer agents: synthesis, crystal structure analysis and binding studies of the most potent anticancer molecule with serum albumin” (Medchemcomm, 2015):
Calls of active or inactive are those of the source. The rule behind the calls is not given here.

How the values were obtained:
Hs-578T = test: Antiproliferative activity against human Hs 578T cells at 10'5 M; format: functional
NCI/ADR-RES = test: Antiproliferative activity against human NCI-ADR-RES cells at 10'5 M; format: functional
NCI-H460 = test: Antiproliferative activity against human NCI-H460 cells at 10'5 M; format: functional
SNB-75 = test: Antiproliferative activity against human SNB75 cells at 10'5 M; format: functional
SK-OV-3 = test: Antiproliferative activity against human SKOV3 cells at 10'5 M; format: functional
HCC 2998 = test: Antiproliferative activity against human HCC2998 cells at 10'5 M; format: functional
Malme-3M = test: Antiproliferative activity against human MALME-3M cells at 10'5 M; format: functional
IGROV-1 = test: Antiproliferative activity against human IGROV1 cells at 10'5 M; format: functional
DU-145 = test: Antiproliferative activity against human DU145 cells at 10'5 M; format: functional
PC-3 = test: Antiproliferative activity against human PC3 cells at 10'5 M; format: functional
K562 = test: Antiproliferative activity against human K562 cells at 10'5 M; format: functional
MOLT-4 = test: Antiproliferative activity against human MOLT4 cells at 10'5 M; format: functional
MCF7 = test: Antiproliferative activity against human MCF7 cells at 10'5 M; format: functional
TK-10 = test: Antiproliferative activity against human TK10 cells at 10'5 M; format: functional
SR = test: Antiproliferative activity against human SR cells at 10'5 M; format: functional
CCRF-CEM = test: Antiproliferative activity against human CCRF-CEM cells at 10'5 M; format: functional
RPMI-8226 = test: (§1) Antiproliferative activity against human RPMI8226 cells at 10'5 M; format: functional
OVCAR-4 = test: Antiproliferative activity against human OVCAR4 cells at 10'5 M; format: functional
HCT-116 = test: (§2) Antiproliferative activity against human HCT116 cells at 10'5 M; format: functional
[1] = as §1; format: functional, RPMI-8226
[2] = as §2; format: functional, HCT-116

Row | SMILES | Activity (Hs-578T) | Activity (NCI/ADR-RES) | Activity (NCI-H460) | Activity (SNB-75) | Activity (SK-OV-3) | Activity (HCC 2998) | Activity (Malme-3M) | Activity (IGROV-1) | Activity (DU-145) | Activity (PC-3) | Activity (K562) | Activity (MOLT-4) | Activity (MCF7) | Activity (TK-10) | Activity (SR) | Activity (CCRF-CEM) | Activity (RPMI-8226) | Activity (OVCAR-4) | Activity (HCT-116) | further results
1 | O=C(/C=C/c1ccccc1)n1c(-c2ccccc2O)nc2ccccc21 | inactive | inactive | inactive | inactive | inactive | inactive | inactive | inactive | inactive | inactive | inactive | inactive | inactive | inactive | inactive | inactive | inactive | inactive | inactive | –
2 | Cc1ccc2nc[nH]c2c1 | – | – | – | – | – | – | – | – | – | – | – | – | – | – | – | – | – | – | – | growth inhibition (GI) (MCF7): 73.43%; growth inhibition (GI) (SR): 84.7%; growth inhibition (GI) (CCRF-CEM): 60.81%; growth inhibition (GI) [1]: 88.17%; growth inhibition (GI) [2]: 64.84%
3 | COc1ccc(-c2nc3ccccc3n2C(=O)/C=C/c2ccccc2)cc1 | inactive | inactive | inactive | inactive | inactive | inactive | inactive | inactive | inactive | inactive | inactive | inactive | inactive | inactive | inactive | inactive | inactive | inactive | inactive | –
4 | Cc1cc2nc[nH]c2cc1C [DIMEDAZOL] | – | – | – | – | – | – | – | – | – | – | – | – | – | – | – | – | – | – | – | growth inhibition (GI) (MCF7): 69.59%; growth inhibition (GI) (SR): 64.66%; growth inhibition (GI) (CCRF-CEM): 64.66%; growth inhibition (GI) [1]: 63.61%
5 | O=C(/C=C/c1ccccc1)n1c(-c2ccccc2)nc2ccccc21 | inactive | inactive | inactive | inactive | inactive | inactive | inactive | inactive | inactive | inactive | inactive | inactive | inactive | inactive | inactive | inactive | inactive | inactive | inactive | –
6 | Cc1nc2ccccc2n1C(=O)/C=C/c1ccccc1 | inactive | inactive | inactive | inactive | inactive | inactive | inactive | inactive | inactive | inactive | inactive | inactive | inactive | inactive | inactive | inactive | inactive | inactive | inactive | –
7 | Cc1cc2ncn(C(=O)/C=C/c3ccccc3)c2cc1C | inactive | inactive | inactive | inactive | inactive | inactive | inactive | inactive | inactive | inactive | inactive | inactive | inactive | inactive | inactive | inactive | inactive | inactive | inactive | –
8 | O=C(/C=C/c1ccccc1)n1c(-c2ccc(O)cc2)nc2ccccc21 | inactive | inactive | inactive | inactive | inactive | inactive | inactive | inactive | inactive | inactive | inactive | inactive | inactive | inactive | inactive | inactive | inactive | inactive | inactive | –
9 | Cc1ccc2ncn(C(=O)/C=C/c3ccccc3)c2c1 | inactive | inactive | inactive | inactive | inactive | inactive | inactive | inactive | inactive | inactive | inactive | inactive | inactive | inactive | inactive | inactive | inactive | inactive | inactive | –
